# Source: patent publication US20260273072A1, “NOVEL PLK1 DEGRADATION INDUCING COMPOUND” (UPPTHERA, INC., priority 2023, published 2026)
# What was measured:
# Assay type in all cases: cell-based
# [1] = tested on: NCI-H69 cell line; experiment: Cell viability assay for NCI-H69 cell line (EZ-Cytox); conditions: Homo sapiens, NCI-H69, 120 h; H69 cells, 5 days, 3000 nM to 0.46 nM
# Method in brief: (§1)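 IC50 values are binned (A: <30 nM, B: <50 nM, C: <100 nM, D: <200 nM, E: <400 nM) from EZ-Cytox read-outs. Cells were exposed to compound for 5 days, then shaken 3 min and absorbance taken at […].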
# [2] = tested on: NCI-H526 cell line; experiment: Cell viability assay for NCI-H526 cell line (EZ-Cytox); conditions: Homo sapiens, NCI-H526, 120 h; H526 cells, 5 days, 3000 nM to 0.46 nM
# Method in brief: as §1
# [3] = tested on: MRC-5 cell line; experiment: Cell viability assay for MRC-5 cell line (EZ-Cytox); conditions: Homo sapiens, MRC5, 120 h; MRC-5 normal cell line, 5 days, 10000 nM to 1.52 nM; read-out: Activity: IC50 value, cell viability, MRC-5 cell line (Exemplary Compounds)
# Description: 4. Cell Viability Assay for MRC-5 Cell Line
# (1) Culture of MRC-5 Cell Line
# The MRC-5 cell line was purchased from KCLB. Passage of cultured cells was maintained within P15.
# (2) Treatment of Compounds of the Present Invention
# Then, it was cultured in 37° C. CO2 incubator (Thermo Fisher Scientific) for 5 days.
# (3) Cytotoxicity Experiment
# CO2 incubator for 4 hours.
# [4] = target: T1, PLK1 (Homo sapiens, UniProt P53350); experiment: Luciferase assay for PLK1 in HeLa LgBit (Plk1-HiBit KI) cell line; conditions: 300 nM compound, luminescence after 9 hours
# T1 construct: endogenous in cells; host or cells: HeLa LgBit (Plk1-HiBit KI): HeLa stably expressing LgBit, with a CRISPR/Cas9 knock-in of HiBit at the endogenous PLK1 locus
# Method in brief: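 Compounds (300 nM) were added with Endurazine to thymidine-synchronised cells (2 mM, 24 h block, then release and 18 h culture), and luminescence at 470-480 nm was followed live. Cells: HeLa stably expressing LgBit, HiBit knocked into native PLK1 C-terminus. Value: luminescence ratio versus DMSO control.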
# T1 sequence (P53350 whole entry): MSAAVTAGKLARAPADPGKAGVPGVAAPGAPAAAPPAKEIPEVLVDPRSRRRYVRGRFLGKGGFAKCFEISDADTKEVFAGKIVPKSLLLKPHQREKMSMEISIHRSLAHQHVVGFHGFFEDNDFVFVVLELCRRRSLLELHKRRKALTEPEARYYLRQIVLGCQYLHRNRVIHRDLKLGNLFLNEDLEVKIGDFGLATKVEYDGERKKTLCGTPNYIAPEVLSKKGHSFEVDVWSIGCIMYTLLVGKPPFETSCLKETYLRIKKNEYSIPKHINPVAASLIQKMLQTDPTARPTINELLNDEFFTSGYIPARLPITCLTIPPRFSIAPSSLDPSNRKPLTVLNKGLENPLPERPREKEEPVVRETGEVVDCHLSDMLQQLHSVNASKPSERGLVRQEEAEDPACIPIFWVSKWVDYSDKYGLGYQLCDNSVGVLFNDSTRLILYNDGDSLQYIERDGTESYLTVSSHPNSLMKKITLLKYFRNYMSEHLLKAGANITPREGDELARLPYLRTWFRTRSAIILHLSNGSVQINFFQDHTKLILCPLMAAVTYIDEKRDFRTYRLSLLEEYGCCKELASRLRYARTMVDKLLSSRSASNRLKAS
SMILES,Activity: ratio of the luminescence value of compound treatment group to DMSO treatment group [4],IC50 [1] [nM],IC50 [2] [nM],IC50 [3] [nM]
"CCN1CC(F)(F)C(=O)N(C)c2cnc(Nc3ccc(C(=O)NC4CCC(N(C)CC5CCN(c6cnc(C7CCC(=O)NC7=O)cc6C)CC5)CC4)cc3OC)nc21 (stereo not shown) [Compound 13, N((1r,4r)-4-(((1-(6-(2,6-dioxopiperidin-3-yl)-4-methylpyridin-3-yl)piperidin-4-yl)methyl)(methyl)amino)cyclohexyl)-4-((9-ethyl-7,7-difluoro-5-methyl-6-oxo-6,7,8,9-tetrahydro-5H-pyrimido[4,5-b][1,4]diazepin-2-yl)amino)-3-methoxybenzamide]",+++ (+++: <0.3),< 30,< 30,> 10000
"COc1cc(C(=O)NN2CCC(CCN3CCN(c4cc(OC)c(NC5CCC(=O)NC5=O)cc4F)CC3)CC2)ccc1Nc1ncc2c(n1)N(C1CCCC1)CC(F)(F)C(=O)N2C (stereo not shown) [Compound 40, 4-((9-cyclopentyl-7,7-difluoro-5-methyl-6-oxo-6,7,8,9-tetrahydro-5H-pyrimido[4,5-b][1,4]diazepin-2-yl)amino)-N-(4-(2-(4-(4-((2,6-dioxopiperidin-3-yl)amino)-2-fluoro-5-methoxyphenyl)piperazin-1-yl)ethyl)piperidin-1-yl)-3-methoxybenzamide]",+++ (+++: <0.3),< 30,< 30,> 10000
"COc1cc(C(=O)NN2CCC(CCN3CCN(c4cc(OC)c(NC5CCC(=O)NC5=O)cc4F)CC3)CC2)c(F)cc1Nc1ncc2c(n1)N(C1CCCC1)CC(F)(F)C(=O)N2C (stereo not shown) [Compound 42, 4-((9-cyclopentyl-7,7-difluoro-5-methyl-6-oxo-6,7,8,9-tetrahydro-5H-pyrimido[4,5-b][1,4]diazepin-2-yl)amino)-N-(4-(2-(4-(4-((2,6-dioxopiperidin-3-yl)amino)-2-fluoro-5-methoxyphenyl)piperazin-1-yl)ethyl)piperidin-1-yl)-2-fluoro-5-methoxybenz amide]",++ (++: <0.5),< 50,< 30,> 10000
"COc1cc(C(=O)NC2CC3(CCN(CC4CCN(c5ccc(C6CCC(=O)NC6=O)cc5F)CC4)CC3)C2)ccc1Nc1ncc2c(n1)N(C)CC(F)(F)C(=O)N2C (stereo not shown) [Compound 5, 4-((7,7-difluoro-5,9-dimethyl-6-oxo-6,7,8,9-tetrahydro-5H-pyrimido[4,5-b][1,4]diazepin-2-yl)amino)-N-(7-((1-(4-(2,6-dioxopiperidin-3-yl)-2-fluorophenyl)piperidin-4-yl)methyl)-7-azaspiro[3.5]nonan-2-yl)-3-methoxybenzamide]",++ (++: <0.5),< 100,< 100,> 10000
"COc1cc(C(=O)NC2CCC(N(C)CC3CCN(c4cnc(C5CCC(=O)NC5=O)cc4C)CC3)CC2)ccc1Nc1ncc2c(n1)N(C1CCCC1)CC(F)(F)C(=O)N2C (stereo not shown) [Compound 14, 4-((9-cyclopentyl-7,7-difluoro-5-methyl-6-oxo-6,7,8,9-tetrahydro-5H-pyrimido[4,5-b][1,4]diazepin-2-yl)amino)-N-((1r,4r)-4-(((1-(6-(2,6-dioxopiperidin-3-yl)-4-methylpyridin-3-yl)piperidin-4-yl)methyl)(methyl)amino)cyclohexyl)-3-methoxybenzamide]",+++ (+++: <0.3),< 30,< 30,> 10000
"COc1cc(C(=O)N[C@H]2CC[C@H](N(C)CC3CCN(c4cccc(N5CCC(=O)NC5=O)c4)CC3)CC2)ccc1Nc1ncc2c(n1)N(C1CCCC1)CC(F)(F)C(=O)N2C [Compound 8, 4-((9-cyclopentyl-7,7-difluoro-5-methyl-6-oxo-6,7,8,9-tetrahydro-5H-pyrimido[4,5-b][1,4]diazepin-2-yl)amino)-N-((1r,4r)-4-(((1-(3-(2,4-dioxotetrahydropyrimidin-1 (2H)-yl)phenyl)piperidin-4-yl)methyl)(methyl)amino)cyclohexyl)-3-methoxybenzamide]",++ (++: <0.5),< 30,< 30,> 10000
"COc1cc(C(=O)NC2CCC(N(C)CC3CCN(c4ccc(C5CCC(=O)NC5=O)nc4)CC3)CC2)ccc1Nc1ncc2c(n1)N(C1CCCC1)CC(F)(F)C(=O)N2C (stereo not shown) [Compound 10, 4-((9-cyclopentyl-7,7-difluoro-5-methyl-6-oxo-6,7,8,9-tetrahydro-5H-pyrimido[4,5-b][1,4]diazepin-2-yl)amino)-N-((1r,4r)-4-(((1-(6-(2,6-dioxopiperidin-3-yl)pyridin-3-yl)piperidin-4-yl)methyl)(methyl)amino)cyclohexyl)-3-methoxybenzamide]",+++ (+++: <0.3),< 30,< 30,> 10000
"COc1cc(C(=O)NN2CCC(N3CC4(CCN(c5cccc(C6CCC(=O)NC6=O)c5)CC4)C3)CC2)ccc1Nc1ncc2c(n1)N(C1CCCC1)CC(F)(F)C(=O)N2C (stereo not shown) [Compound 1, 4-((9-cyclopentyl-7,7-difluoro-5-methyl-6-oxo-6,7,8,9-tetrahydro-5H-pyrimido[4,5-b][1,4]diazepin-2-yl)amino)-N-(4-(7-(3-(2,6-dioxopiperidin-3-yl)phenyl)-2,7-diazaspiro[3.5]nonan-2-yl)piperidin-1-yl)-3-methoxybenzamide]",++ (++: <0.5),< 50,< 30,> 10000

# Now from value to compound, other results behind:
Activity: ratio of the luminescence value of compound treatment group to DMSO treatment group [4],SMILES,IC50 [1] [nM],IC50 [2] [nM],IC50 [3] [nM]
++ (++: <0.5),"COc1cc(C(=O)NN2CCC(CCN3CCN(c4cc(F)c(NC5CCC(=O)NC5=O)cc4F)CC3)CC2)c(F)cc1Nc1ncc2c(n1)N(C(C)C)CC(F)(F)C(=O)N2C (stereo not shown) [Compound 60, 4-((7,7-difluoro-9-isopropyl-5-methyl-6-oxo-6,7,8,9-tetrahydro-5H-pyrimido[4,5-b][1,4]diazepin-2-yl)amino)-N-(4-(2-(4-(4-((2,6-dioxopiperidin-3-yl)amino)-2,5-difluorophenyl)piperazin-1-yl)ethyl)piperidin-1-yl)-2-fluoro-5-methoxybenzamide]",< 50,< 50,> 10000
++ (++: <0.5),"CCN1CC(F)(F)C(=O)N(C)c2cnc(Nc3ccc(C(=O)NC4CCN(CCC5CCN(c6cc(F)c(NC7CCC(=O)NC7=O)cc6F)CC5)CC4)cc3OC)nc21 (stereo not shown) [Compound 64, N(1-(2-(1-(4-((2,6-dioxopiperidin-3-yl)amino)-2,5-difluorophenyl)piperidin-4-yl)ethyl)piperidin-4-yl)-4-((9-ethyl-7,7-difluoro-5-methyl-6-oxo-6,7,8,9-tetrahydro-5H-pyrimido[4,5-b][1,4]diazepin-2-yl)amino)-3-methoxybenzamide]",< 30,< 30,> 10000
++ (++: <0.5),"COc1cc(C(=O)NC2CC3(CCN(CC4CCN(c5cc(OC)c(NC6CCC(=O)NC6=O)cc5F)CC4)CC3)C2)ncc1Nc1ncc2c(n1)N(C(C)C)CC(F)(F)C(=O)N2C (stereo not shown) [Compound 53, 5-((7,7-difluoro-9-isopropyl-5-methyl-6-oxo-6,7,8,9-tetrahydro-5H-pyrimido[4,5-b][1,4]diazepin-2-yl)amino)-N-(7-((1-(4-((2,6-dioxopiperidin-3-yl)amino)-2-fluoro-5-methoxyphenyl)piperidin-4-yl)methyl)-7-azaspiro[3.5]nonan-2-yl)-4-methoxypicolinamide]",< 50,< 30,> 10000
+++ (+++: <0.3),"COc1cc(C(=O)NC2CC3(CCN(CC4CCN(c5cc(OC)c(NC6CCC(=O)NC6=O)cc5F)CC4)CC3)C2)ccc1Nc1ncc2c(n1)N(C1CCCC1)CC(F)(F)C(=O)N2C (stereo not shown) [Compound 51, 4-((9-cyclopentyl-7,7-difluoro-5-methyl-6-oxo-6,7,8,9-tetrahydro-5H-pyrimido[4,5-b][1,4]diazepin-2-yl)amino)-N-(7-((1-(4-((2,6-dioxopiperidin-3-yl)amino)-2-fluoro-5-methoxyphenyl)piperidin-4-yl)methyl)-7-azaspiro[3.5]nonan-2-yl)-3-methoxybenzamide]",< 30,< 30,> 10000
++ (++: <0.5),"COc1cc(C(=O)NN2CCC(CCN3CCN(c4cc(C#N)c(NC5CCC(=O)NC5=O)cc4F)CC3)CC2)ccc1Nc1ncc2c(n1)N(C1CCCC1)CC(F)(F)C(=O)N2C (stereo not shown) [Compound 76, N(4-(2-(4-(5-cyano-4-((2,6-dioxopiperidin-3-yl)amino)-2-fluorophenyl)piperazin-1-yl)ethyl)piperidin-1-yl)-4-((9-cyclopentyl-7,7-difluoro-5-methyl-6-oxo-6,7,8,9-tetrahydro-5H-pyrimido[4,5-b][1,4]diazepin-2-yl)amino)-3-methoxybenzamide]",< 30,< 30,> 10000
